According to patent publication US20070049564A1 (Wyeth, priority 2005, published 2007):
Values after ≈ are worked out from the molar mass of the structure shown. Like-named read-outs stand apart in the source and are kept apart here.

Columns and labels:
[1] = test system: E. coli GC 2234; assay: MIC, broth microdilution; conditions: Escherichia coli
[2] = test system: S. aureus GC 6467; assay: MIC, broth microdilution; conditions: Staphylococcus aureus
[3] = test system: Staph.; assay: Range of MIC for Staph. strains, including MRSA; conditions: Staphylococcus aureus
[4] = test system: S. aureus GC 1131; assay: MIC, broth microdilution; conditions: Staphylococcus aureus
[5] = test system: E. coli GC 6465; assay: MIC, broth microdilution; conditions: Escherichia coli
[6] = test system: E. coli GC 2203; assay: MIC, broth microdilution; conditions: Escherichia coli
[7] = test system: E. faecalis GC 2267; assay: MIC, broth microdilution; conditions: Enterococcus faecalis
[8] = test system: S. pneumoniae* GC 4465; assay: MIC, broth microdilution; conditions: Streptococcus pneumoniae
[9] = test system: E. coli GC 4560; assay: MIC, broth microdilution; conditions: Escherichia coli
[10] = test system: S. aureus GC 1079; assay: MIC, broth microdilution; conditions: Staphylococcus aureus
Protocol: (§1) Antimicrobial susceptibility testing. The in vitro activities of the antibiotics are determined by the broth microdilution method as recommended by the National Committee for Clinical Laboratory Standards (NCCLS) (1). Mueller-Hinton II broth (MHBII)(BBL Cockeysville, Md.) is the medium employed in the testing procedures. Microtiter plates containing serial dilutions of each antimicrobial agent are inoculated with each organism to yield the appropriate density (10^5 CFU/ml) in a 100 μl final volume. The plates are incubated for 18-22 hours at 35° C. in ambient air.
(§2) Representative compounds were first incubated in mouse serum for an hour prior to the in vitro testing against a panel of selected gram-positive and gram-negative bacteria strains. All compounds were also pre-incubated in water for an hour prior to testing as control. Representative compounds of Formula I were incubated in human serum prior to MIC determination.

[11] = test system: E. faecalis GC 4555; assay: MIC, broth microdilution; conditions: Enterococcus faecalis
[12] = test system: E. coli GC 2235; assay: MIC, broth microdilution; conditions: Escherichia coli
[13] = test system: S. aureus GC 6466; assay: MIC, broth microdilution; conditions: Staphylococcus aureus
[14] = test system: E. coli GC 2236; assay: MIC, broth microdilution; conditions: Escherichia coli
[15] = test system: S. epidermidis GC 4935; assay: MIC, broth microdilution; conditions: Staphylococcus epidermidis
Protocol: as §1, §2

[16] = test system: E. coli GC 2231; assay: MIC, broth microdilution; conditions: Escherichia coli
[17] = test system: S. typhimurium GC 2172; assay: MIC, broth microdilution; conditions: Salmonella enterica, TYPHIMURIUM
Protocol: as §1
Representative compounds were first incubated in mouse serum for an hour prior to the in vitro testing against a panel of selected gram-positive and gram-negative bacteria strains. All compounds were also pre-incubated in water for an hour prior to testing as control.

[18] = test system: E. coli GC 2272; assay: MIC, broth microdilution; conditions: Escherichia coli
[19] = test system: E. coli GC 2233; assay: MIC, broth microdilution; conditions: Escherichia coli
[20] = test system: E. faecium GC 4556; assay: MIC, broth microdilution; conditions: Enterococcus faecium
[21] = read-out: MINIMAL INHIBITORY CONCENTRATION MIC, pre-incubated in Human Serum
[22] = read-out: MINIMAL INHIBITORY CONCENTRATION MIC, pre-incubated in Mouse Serum
[23] = read-out: MINIMAL INHIBITORY CONCENTRATION MIC, pre-incubated in Water

SMILES: Cc1ccc(C(=O)OCOC(=O)N(CC(=O)Nc2cc(N(C)C)c3c(c2O)C(=O)C2=C(O)[C@]4(O)C(=O)C(C(N)=O)=C(O)[C@@H](N(C)C)[C@@H]4C[C@@H]2C3)C(C)(C)C)cc1 [Example 47]
- MIC ([1]; GC2234, read-out: MINIMAL INHIBITORY CONCENTRATION MIC, pre-incubated in Human Serum): 16 µg/mL (≈ 20.6 µM)
- MIC ([1]; GC2234, read-out: MINIMAL INHIBITORY CONCENTRATION MIC, pre-incubated in Mouse Serum): 1 µg/mL (≈ 1.29 µM)
- MIC ([1]; GC2234, read-out: MINIMAL INHIBITORY CONCENTRATION MIC, pre-incubated in Water): > 64 µg/mL
- MIC ([2]; GC6467, read-out: MINIMAL INHIBITORY CONCENTRATION MIC, pre-incubated in Human Serum): 2 µg/mL (≈ 2.57 µM)
- MIC ([2]; GC6467, read-out: MINIMAL INHIBITORY CONCENTRATION MIC, pre-incubated in Mouse Serum): 1 µg/mL (≈ 1.29 µM)
- MIC ([2]; GC6467, read-out: MINIMAL INHIBITORY CONCENTRATION MIC, pre-incubated in Water): 4 µg/mL (≈ 5.14 µM)
- MIC ([3]; MRSA, read-out: Range of MIC, Staph (Mouse Serum)): 1 to 2 µg/mL (≈ 1.29 to 2.57 µM)
- MIC ([3]; MRSA, read-out: Range of MIC, Staph (Water)): 2 to 4 µg/mL (≈ 2.57 to 5.14 µM)
- MIC ([3]; read-out: Minimum inhibitory concentration (MIC), Staph (Human Serum)): 1 to 4 µg/mL (≈ 1.29 to 5.14 µM)
- MIC ([3]; read-out: Minimum inhibitory concentration (MIC), Staph (Water)): 2 to 4 µg/mL (≈ 2.57 to 5.14 µM)
- MIC ([4]; GC1131, read-out: MINIMAL INHIBITORY CONCENTRATION MIC, pre-incubated in Human Serum): 2 µg/mL (≈ 2.57 µM)
- MIC ([4]; GC1131, read-out: MINIMAL INHIBITORY CONCENTRATION MIC, pre-incubated in Mouse Serum): 1 µg/mL (≈ 1.29 µM)
- MIC ([4]; GC1131, read-out: MINIMAL INHIBITORY CONCENTRATION MIC, pre-incubated in Water): 2 µg/mL (≈ 2.57 µM)
- MIC ([5]; GC6465, read-out: MINIMAL INHIBITORY CONCENTRATION MIC, pre-incubated in Human Serum): > 64 µg/mL
- MIC ([5]; GC6465, read-out: MINIMAL INHIBITORY CONCENTRATION MIC, pre-incubated in Mouse Serum): 2 µg/mL (≈ 2.57 µM)
- MIC ([5]; GC6465, read-out: MINIMAL INHIBITORY CONCENTRATION MIC, pre-incubated in Water): > 64 µg/mL
- MIC ([6]; GC2203, read-out: MINIMAL INHIBITORY CONCENTRATION MIC, pre-incubated in Human Serum): 32 µg/mL (≈ 41.1 µM)
- MIC ([6]; GC2203, read-out: MINIMAL INHIBITORY CONCENTRATION MIC, pre-incubated in Mouse Serum): 1 µg/mL (≈ 1.29 µM)
- MIC ([6]; GC2203, read-out: MINIMAL INHIBITORY CONCENTRATION MIC, pre-incubated in Water): > 64 µg/mL
- MIC ([7]; GC2267, read-out: MINIMAL INHIBITORY CONCENTRATION MIC, pre-incubated in Human Serum): 4 µg/mL (≈ 5.14 µM)
- MIC ([7]; GC2267, read-out: MINIMAL INHIBITORY CONCENTRATION MIC, pre-incubated in Mouse Serum): 1 µg/mL (≈ 1.29 µM)
- MIC ([7]; GC2267, read-out: MINIMAL INHIBITORY CONCENTRATION MIC, pre-incubated in Water): 4 µg/mL (≈ 5.14 µM)
- MIC [8, 21]: 0.5 µg/mL (≈ 0.643 µM)
- MIC [8, 22]: 0.25 µg/mL (≈ 0.321 µM)
- MIC [8, 23]: 0.5 µg/mL (≈ 0.643 µM)
- MIC ([9]; GC4560, read-out: MINIMAL INHIBITORY CONCENTRATION MIC, pre-incubated in Human Serum): 4 µg/mL (≈ 5.14 µM)
- MIC ([9]; GC4560, read-out: MINIMAL INHIBITORY CONCENTRATION MIC, pre-incubated in Mouse Serum): 1 µg/mL (≈ 1.29 µM)
- MIC ([9]; GC4560, read-out: MINIMAL INHIBITORY CONCENTRATION MIC, pre-incubated in Water): 16 µg/mL (≈ 20.6 µM)
- MIC ([10]; GC1079, read-out: MINIMAL INHIBITORY CONCENTRATION MIC, pre-incubated in Human Serum): 2 µg/mL (≈ 2.57 µM)
- MIC ([10]; GC1079, read-out: MINIMAL INHIBITORY CONCENTRATION MIC, pre-incubated in Mouse Serum): 1 µg/mL (≈ 1.29 µM)
- MIC ([10]; GC1079, read-out: MINIMAL INHIBITORY CONCENTRATION MIC, pre-incubated in Water): 2 µg/mL (≈ 2.57 µM)
- MIC ([11]; GC4555, read-out: MINIMAL INHIBITORY CONCENTRATION MIC, pre-incubated in Human Serum): 4 µg/mL (≈ 5.14 µM)
- MIC ([11]; GC4555, read-out: MINIMAL INHIBITORY CONCENTRATION MIC, pre-incubated in Mouse Serum): 1 µg/mL (≈ 1.29 µM)
- MIC ([11]; GC4555, read-out: MINIMAL INHIBITORY CONCENTRATION MIC, pre-incubated in Water): 4 µg/mL (≈ 5.14 µM)
- MIC ([12]; GC2235, read-out: MINIMAL INHIBITORY CONCENTRATION MIC, pre-incubated in Human Serum): 16 µg/mL (≈ 20.6 µM)
- MIC ([12]; GC2235, read-out: MINIMAL INHIBITORY CONCENTRATION MIC, pre-incubated in Mouse Serum): 1 µg/mL (≈ 1.29 µM)
- MIC ([12]; GC2235, read-out: MINIMAL INHIBITORY CONCENTRATION MIC, pre-incubated in Water): > 64 µg/mL
- MIC ([13]; GC6466, read-out: MINIMAL INHIBITORY CONCENTRATION MIC, pre-incubated in Human Serum): 1 µg/mL (≈ 1.29 µM)
- MIC ([13]; GC6466, read-out: MINIMAL INHIBITORY CONCENTRATION MIC, pre-incubated in Mouse Serum): 1 µg/mL (≈ 1.29 µM)
- MIC ([13]; GC6466, read-out: MINIMAL INHIBITORY CONCENTRATION MIC, pre-incubated in Water): 2 µg/mL (≈ 2.57 µM)
- MIC ([14]; GC2236, read-out: MINIMAL INHIBITORY CONCENTRATION MIC, pre-incubated in Human Serum): 32 µg/mL (≈ 41.1 µM)
- MIC ([14]; GC2236, read-out: MINIMAL INHIBITORY CONCENTRATION MIC, pre-incubated in Mouse Serum): 1 µg/mL (≈ 1.29 µM)
- MIC ([14]; GC2236, read-out: MINIMAL INHIBITORY CONCENTRATION MIC, pre-incubated in Water): > 64 µg/mL
- MIC ([15]; GC4935, read-out: MINIMAL INHIBITORY CONCENTRATION MIC, pre-incubated in Human Serum): 4 µg/mL (≈ 5.14 µM)
- MIC ([15]; GC4935, read-out: MINIMAL INHIBITORY CONCENTRATION MIC, pre-incubated in Mouse Serum): 2 µg/mL (≈ 2.57 µM)
- MIC ([15]; GC4935, read-out: MINIMAL INHIBITORY CONCENTRATION MIC, pre-incubated in Water): 4 µg/mL (≈ 5.14 µM)
- MIC ([16]; GC2231, read-out: MINIMAL INHIBITORY CONCENTRATION MIC, pre-incubated in Human Serum): 32 µg/mL (≈ 41.1 µM)
- MIC ([16]; GC2231, read-out: MINIMAL INHIBITORY CONCENTRATION MIC, pre-incubated in Mouse Serum): 1 µg/mL (≈ 1.29 µM)
- MIC ([16]; GC2231, read-out: MINIMAL INHIBITORY CONCENTRATION MIC, pre-incubated in Water): > 64 µg/mL
- MIC [17, 21]: > 64 µg/mL
- MIC [17, 22]: 4 µg/mL (≈ 5.14 µM)
- MIC [17, 23]: > 64 µg/mL
- MIC ([18]; GC2272, read-out: MINIMAL INHIBITORY CONCENTRATION MIC, pre-incubated in Human Serum): 16 µg/mL (≈ 20.6 µM)
- MIC ([18]; GC2272, read-out: MINIMAL INHIBITORY CONCENTRATION MIC, pre-incubated in Mouse Serum): 1 µg/mL (≈ 1.29 µM)
- MIC ([18]; GC2272, read-out: MINIMAL INHIBITORY CONCENTRATION MIC, pre-incubated in Water): > 64 µg/mL
- MIC ([19]; GC2233, read-out: MINIMAL INHIBITORY CONCENTRATION MIC, pre-incubated in Human Serum): 16 µg/mL (≈ 20.6 µM)
- MIC ([19]; GC2233, read-out: MINIMAL INHIBITORY CONCENTRATION MIC, pre-incubated in Mouse Serum): 0.5 µg/mL (≈ 0.643 µM)
- MIC ([19]; GC2233, read-out: MINIMAL INHIBITORY CONCENTRATION MIC, pre-incubated in Water): > 64 µg/mL
- MIC ([20]; GC4556, read-out: MINIMAL INHIBITORY CONCENTRATION MIC, pre-incubated in Human Serum): 4 µg/mL (≈ 5.14 µM)
- MIC ([20]; GC4556, read-out: MINIMAL INHIBITORY CONCENTRATION MIC, pre-incubated in Mouse Serum): 1 µg/mL (≈ 1.29 µM)
- MIC ([20]; GC4556, read-out: MINIMAL INHIBITORY CONCENTRATION MIC, pre-incubated in Water): 4 µg/mL (≈ 5.14 µM)
